Source: patent US11840551B2, “Compositions and methods of modulating the immune response by activating alpha protein kinase 1” (Shanghai Yao Yuan Biotechnology Co., Ltd., priority 2017, dated 2023)
“Also recorded” adds a separate entry of the source.

Tests used:
ALPK1 [1] = molecular target: T1, ALPK1 (Homo sapiens, UniProt Q96QP1); experiment: In vitro kinase assay of ALPK1-dependent TIFA phosphorylation; format: biochemical; details: ALPK1 2 nM, TIFA 1.6 uM, 50 uM ATP; compound 2 nM, 0.4 nM, 80 pM, 16 pM, 3 pM
Procedure: We performed an in vitro kinase assay with H1b-ADP and H1b-ADP-6L along with ALPK1 protein (2 nM), and TIFA protein (1.6 uM) in kinase buffer containing 50 uM ATP. TIFA phosphorylation was analyzed by denaturing gel electrophoresis followed by western blotting using an anti-phosphothreonine antibody. H1b-ADP or H1b-ADP-6L was added at 2 nM, 0.4 nM, 80 pM, 16 pM, and 3 pM.
To test this, we performed an in vitro kinase reaction for ALPK1-dependent TIFA phosphorylation in the presence of either HBP or HIdA purified from E. coli containing inactivated HIdE, or in the presence of HBP and HIdA purified from the same HIdE wild-type E. coli used in the previous experiments. Phosphorylated TIFA (three concentrations, 1%, 0.2% and […]) was detected as described above by denaturing gel electrophoresis followed by Western analysis.

ALPK1 [2] = molecular target: T1, ALPK1; experiment: IL8 secretion in HEK293 cells (IL8 ELISA) as indicator of ALPK1 activation; details: for IL8 secretion in HEK293 cells: serial dilutions, 4 hours
Procedure: Phosphatase such as the alkaline phosphatase may be responsible for H1b-ADP hydrolysis. We pre-mixed H1b-ADP with phosphatase inhibitor sodium orthovanadate (Na3VO4) before incubation with FBS. […] We hypothesized that the accumulation of hydrolysis product AMP can inhibit phosphatase activity.
A number of H1b-ADP derivative compounds were made as described herein and tested for biological activity as agonists of ALPK1 in vitro. In these experiments, serial dilutions of the compounds were added to the tissue culture media of HEK293 cells with (FIG. 27B, FIG. 28B, FIG. 29B) or without (FIG. 26, FIG. 27A, FIG. 28A, FIG. 29A) 10% FBS, as indicated in the figures. After 4 hours, the cell supernatant was collected and analyzed for IL8 concentration using IL8 ELISA (BD) as an indicator of ALPK1 activation.

T1 sequence (Q96QP1 whole entry): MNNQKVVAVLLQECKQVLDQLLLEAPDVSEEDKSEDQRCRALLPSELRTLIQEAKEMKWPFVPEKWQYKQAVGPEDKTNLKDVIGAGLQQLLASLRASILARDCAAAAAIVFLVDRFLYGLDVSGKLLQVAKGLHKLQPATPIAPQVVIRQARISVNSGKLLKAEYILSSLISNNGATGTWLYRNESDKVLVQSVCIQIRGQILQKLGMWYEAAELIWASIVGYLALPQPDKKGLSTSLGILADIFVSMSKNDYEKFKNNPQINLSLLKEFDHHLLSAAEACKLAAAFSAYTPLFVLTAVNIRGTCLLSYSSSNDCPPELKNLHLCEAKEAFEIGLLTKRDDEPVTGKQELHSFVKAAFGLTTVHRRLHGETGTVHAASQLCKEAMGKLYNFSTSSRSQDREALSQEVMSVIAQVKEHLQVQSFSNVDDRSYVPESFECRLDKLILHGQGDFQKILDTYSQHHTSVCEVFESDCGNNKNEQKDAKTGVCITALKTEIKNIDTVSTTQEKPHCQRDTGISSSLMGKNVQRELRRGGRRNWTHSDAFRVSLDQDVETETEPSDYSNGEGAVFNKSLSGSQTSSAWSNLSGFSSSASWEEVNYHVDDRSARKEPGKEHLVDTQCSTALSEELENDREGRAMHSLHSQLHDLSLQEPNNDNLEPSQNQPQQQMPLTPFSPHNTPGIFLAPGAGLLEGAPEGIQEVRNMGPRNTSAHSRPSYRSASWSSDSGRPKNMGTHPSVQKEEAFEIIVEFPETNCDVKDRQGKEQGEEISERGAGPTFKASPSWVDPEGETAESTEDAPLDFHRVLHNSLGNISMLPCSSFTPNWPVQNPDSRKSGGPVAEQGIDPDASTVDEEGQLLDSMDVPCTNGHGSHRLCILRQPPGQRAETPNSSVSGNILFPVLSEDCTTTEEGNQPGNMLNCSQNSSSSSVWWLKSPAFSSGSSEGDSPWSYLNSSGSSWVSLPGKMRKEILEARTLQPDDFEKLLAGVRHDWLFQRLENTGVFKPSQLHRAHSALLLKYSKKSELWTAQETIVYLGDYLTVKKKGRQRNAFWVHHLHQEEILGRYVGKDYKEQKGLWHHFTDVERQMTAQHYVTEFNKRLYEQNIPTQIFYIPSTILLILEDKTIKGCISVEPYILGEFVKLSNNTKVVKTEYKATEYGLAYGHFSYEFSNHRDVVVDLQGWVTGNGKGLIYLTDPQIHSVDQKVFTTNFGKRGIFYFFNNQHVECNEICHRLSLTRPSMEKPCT

Nc1ncnc2c1ncn2[C@@H]1O[C@H](COP(=O)(O)OP(=O)(O)O[C@@H]2O[C@H]([C@@H](O)CO)[C@@H](O)[C@H](O)[C@@H]2O)[C@@H](O)[C@H]1O [Compound H1b-ADP-6L, L-glycero-D-manno-heptose-1β-ADP]
TIFA phosphorylation (ALPK1 [1]): activated ALPK1-dependent signaling in a manner similar to H1b-ADP

COC1C(OC)[C@@H](COP(=O)(O)OP(=O)(O)O[C@@H]2OC([C@H](O)CO)[C@@H](O)C(O)C2O)O[C@H]1n1cnc2c(N)ncnc21 (stereo in doubt) [Compound 14, Adenosine-2′3′-dimethoxy-5′-(D-glycero-B-D-mannoheptopyranosyl) diphosphate]
IL8 secretion in HEK293 cells (ALPK1 [2]; with 10% FBS): increased IL8 secretion | IL8 secretion in HEK293 cells (ALPK1 [2]; without FBS): increased IL8 secretion

CO[C@@H]1[C@H](OC)[C@@H](COP(=O)(O)OP(=O)(O)O[C@@H]2O[C@H]([C@@H](COC(C)=O)OC(C)=O)[C@@H](OC(C)=O)[C@H](OC(C)=O)[C@@H]2OC(C)=O)O[C@H]1n1cnc2c(N)ncnc21 [Compound 13, (2S,3S,4S,5R,6R)-2-(((((((2R,3R,4R,5R)-5-(6-amino-9H-purin-9-yl)-3,4-dimethoxytetrahydrofuran-2-yl)methoxy)(hydroxy)phosphoryl)oxy)(hydroxy)phosphoryl)oxy)-6-((R)-1,2-diacetoxyethyl)tetrahydro-2H-pyran-3,4,5-triyl triacetate]
IL8 secretion in HEK293 cells (ALPK1 [2]; with 10% FBS): increased IL8 secretion | IL8 secretion in HEK293 cells (ALPK1 [2]; without FBS): increased IL8 secretion

CC(=O)OC[C@H](OC(C)=O)[C@H]1O[C@@H](OP(=O)(O)OP(=O)(O)OC[C@H]2O[C@@H](n3cnc4c(N)ncnc43)[C@H](O)[C@@H]2O)[C@@H](OC(C)=O)[C@@H](OC(C)=O)[C@@H]1OC(C)=O [Compound 21, (2S,3S,4S,5R,6R)-2-(((((((2R,3S,4R,5R)-5-(6-amino-9H-purin-9-yl)-3,4-dihydroxytetrahydrofuran-2-yl)methoxy)(hydroxy)phosphoryl)oxy)(hydroxy)phosphoryl)oxy)-6-((S)-1,2-diacetoxyethyl)tetrahydro-2H-pyran-3,4,5-triyl triacetate]
IL8 secretion in HEK293 cells (ALPK1 [2]; with 10% FBS): increased IL8 secretion | IL8 secretion in HEK293 cells (ALPK1 [2]; without FBS): increased IL8 secretion

CC(=O)OC[C@H](F)[C@H]1O[C@@H](OP(=O)(O)OP(=O)(O)OC[C@H]2O[C@@H](n3cnc4c(N)ncnc43)[C@H](O)[C@@H]2O)[C@@H](OC(C)=O)[C@@H](OC(C)=O)[C@@H]1OC(C)=O [Compound 3, (2S,3S,4S,5S,6S)-2-((S)-2-acetoxy-1-fluoroethyl)-6-(((((((2R,3S,4R,5R)-5-(6-amino-9H-purin-9-yl)-3,4-dihydroxytetrahydrofuran-2-yl)methoxy)(hydroxy)phosphoryl)oxy)(hydroxy)phosphoryl)oxy)tetrahydro-2H-pyran-3,4,5-triyl triacetate]
IL8 secretion in HEK293 cells (ALPK1 [2]; with 10% FBS): activate IL8 secretion | IL8 secretion in HEK293 cells (ALPK1 [2]; without FBS): activate IL8 secretion

CC(=O)OC[C@@H](OC(C)=O)C1O[C@@H](OP(=O)(O)OP(=O)(O)OCC2(F)O[C@@H](n3cnc4c(N)ncnc43)C3OC(C)(C)OC32)C(OC(C)=O)C(OC(C)=O)[C@@H]1OC(C)=O (single isomer, unassigned) [Compound 19]
IL8 secretion in HEK293 cells (ALPK1 [2]; with 10% FBS): activate IL8 secretion | IL8 secretion in HEK293 cells (ALPK1 [2]; without FBS): activate IL8 secretion

CC(=O)OC[C@@H](OC(C)=O)[C@H]1O[C@@H](OP(=O)(O)OP(=O)(O)OC[C@@]2(F)O[C@@H](n3cnc4c(N)ncnc43)[C@H](O)[C@@H]2O)[C@@H](OC(C)=O)[C@@H](OC(C)=O)[C@@H]1OC(C)=O [Compound 20, (2S,3S,4S,5R,6R)-2-(((((((2S,3S,4R,5R)-5-(6-amino-9H-purin-9-yl)-2-fluoro-3,4-dihydroxytetrahydrofuran-2-yl)methoxy)(hydroxy)phosphoryl)oxy)(hydroxy)phosphoryl)oxy)-6-((R)-1,2-diacetoxyethyl)tetrahydro-2H-pyran-3,4,5-triyl triacetate]
IL8 secretion in HEK293 cells (ALPK1 [2]; with 10% FBS): activate IL8 secretion | IL8 secretion in HEK293 cells (ALPK1 [2]; without FBS): activate IL8 secretion

CC(=O)OC[C@H]1O[C@@H](OP(=O)(O)OP(=O)(O)OC[C@H]2O[C@@H](n3cnc4c(N)ncnc43)[C@H](O)[C@@H]2O)[C@@H](OC(C)=O)[C@@H](OC(C)=O)[C@@H]1OC(C)=O [Compound 5, (2R,3R,4S,5S,6S)-2-(acetoxymethyl)-6-(((((((2R,3S,4R,5R)-5-(6-amino-9H-purin-9-yl)-3,4-dihydroxytetrahydrofuran-2-yl)methoxy)(hydroxy)phosphoryl)oxy)(hydroxy)phosphoryl)oxy)tetrahydro-2H-pyran-3,4,5-triyl triacetate]
IL8 secretion in HEK293 cells (ALPK1 [2]; with 10% FBS): increased IL8 secretion | IL8 secretion in HEK293 cells (ALPK1 [2]; without FBS): increased IL8 secretion

Nc1ncnc2c1ncn2[C@@H]1O[C@H](COP(O)(=S)OP(=O)(O)O[C@@H]2OC([C@H](O)CO)[C@@H](O)[C@H](O)C2O)[C@H](O)C1O (stereo partly drawn) [Compound 16]
IL8 secretion in HEK293 cells (ALPK1 [2]; with 10% FBS): increased IL8 secretion | IL8 secretion in HEK293 cells (ALPK1 [2]; without FBS): increased IL8 secretion

Nc1ncnc2c1ncn2[C@@H]1O[C@H](COP(=O)(O)OP(=O)(O)O[C@@H]2OC([C@@H](O)CO)[C@@H](O)C(O)C2O)C(O)C1O (stereo in doubt) [Compound 22, Adenosine-5′-(L-glycero-β-D-mannoheptopyranosyl) diphosphate]
IL8 secretion in HEK293 cells (ALPK1 [2]; with 10% FBS): increased IL8 secretion | IL8 secretion in HEK293 cells (ALPK1 [2]; without FBS): increased IL8 secretion

CC(=O)OC[C@@H](OC(C)=O)C1O[C@@H](OP(=O)(O)OP(O)(=S)OC[C@H]2O[C@@H](n3cnc4c(N)ncnc43)C(O)C2O)C(OC(C)=O)C(OC(C)=O)[C@@H]1OC(C)=O (stereo partly drawn) [Compound 15, (2S,3S,4S,5R,6R)-2-(((((((2R,3S,4R,5R)-5-(6-amino-9H-purin-9-yl)-3,4-dihydroxytetrahydrofuran-2-yl)methoxy)(hydroxy)phosphorothioyl)oxy)(hydroxy)phosphoryl)oxy)-6-((R)-1,2-diacetoxyethyl)tetrahydro-2H-pyran-3,4,5-triyl triacetate]
resistance to FBS (serum) degradation (ALPK1 [2]; comparison of IL8 secretion without FBS and with 10% FBS (FIG. 27A, FIG. 27B)): unexpected resistance to serum degradation; also recorded: resistant to FBS degradation | IL8 secretion in HEK293 cells (ALPK1 [2]; with 10% FBS): activate IL8 secretion | IL8 secretion in HEK293 cells (ALPK1 [2]; without FBS): activate IL8 secretion

CC(=O)OC[C@@H](OC(C)=O)[C@H]1O[C@@H](OP(=O)(O)OP(=O)(O)OC[C@H]2O[C@@H](n3cnc4c(N)ncnc43)[C@H](O)[C@H]2F)[C@@H](OC(C)=O)[C@@H](OC(C)=O)[C@@H]1OC(C)=O [Compound 17, (2S,3S,4S,5R,6R)-2-(((((((2R,3R,4S,5R)-5-(6-amino-9H-purin-9-yl)-3-fluoro-4-hydroxytetrahydrofuran-2-yl)methoxy)(hydroxy)phosphoryl)oxy)(hydroxy)phosphoryl)oxy)-6-((R)-1,2-diacetoxyethyl)tetrahydro-2H-pyran-3,4,5-triyl triacetate]
IL8 secretion in HEK293 cells (ALPK1 [2]; with 10% FBS): increased IL8 secretion | IL8 secretion in HEK293 cells (ALPK1 [2]; without FBS): increased IL8 secretion
